The record followed here is ChEMBL document CHEMBL2417439, “Selected furanochalcones as inhibitors of monoamine oxidase” (Bioorg Med Chem Lett, 2013).

Series [1] has as its target T1, Amine oxidase [flavin-containing] A (Homo sapiens, UniProt P21397).
T1 sequence (P21397 whole entry): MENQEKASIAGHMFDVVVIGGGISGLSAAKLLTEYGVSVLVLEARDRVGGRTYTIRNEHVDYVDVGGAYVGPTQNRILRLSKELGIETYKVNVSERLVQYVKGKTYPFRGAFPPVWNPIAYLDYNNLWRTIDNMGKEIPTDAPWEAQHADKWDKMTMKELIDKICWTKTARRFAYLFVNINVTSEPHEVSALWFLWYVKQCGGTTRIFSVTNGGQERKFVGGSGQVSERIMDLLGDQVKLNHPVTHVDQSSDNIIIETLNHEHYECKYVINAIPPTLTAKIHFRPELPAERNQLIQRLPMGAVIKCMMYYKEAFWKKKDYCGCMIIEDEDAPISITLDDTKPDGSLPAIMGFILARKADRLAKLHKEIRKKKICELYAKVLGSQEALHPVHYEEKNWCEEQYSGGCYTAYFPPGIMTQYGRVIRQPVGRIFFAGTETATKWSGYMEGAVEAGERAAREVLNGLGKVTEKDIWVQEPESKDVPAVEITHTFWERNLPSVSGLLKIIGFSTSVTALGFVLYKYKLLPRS
Description: Inhibition of human recombinant MAO-A expressed in insect cell microsomes using kynuramine as substrate assessed as formation of 4-hydroxyquinoline at 100 uM by fluorometric method. Details: species or system Microsome; call rule not given here.

For series [2], the target named is T2, Amine oxidase [flavin-containing] B (Homo sapiens, UniProt P27338).
T2 sequence (P27338 whole entry): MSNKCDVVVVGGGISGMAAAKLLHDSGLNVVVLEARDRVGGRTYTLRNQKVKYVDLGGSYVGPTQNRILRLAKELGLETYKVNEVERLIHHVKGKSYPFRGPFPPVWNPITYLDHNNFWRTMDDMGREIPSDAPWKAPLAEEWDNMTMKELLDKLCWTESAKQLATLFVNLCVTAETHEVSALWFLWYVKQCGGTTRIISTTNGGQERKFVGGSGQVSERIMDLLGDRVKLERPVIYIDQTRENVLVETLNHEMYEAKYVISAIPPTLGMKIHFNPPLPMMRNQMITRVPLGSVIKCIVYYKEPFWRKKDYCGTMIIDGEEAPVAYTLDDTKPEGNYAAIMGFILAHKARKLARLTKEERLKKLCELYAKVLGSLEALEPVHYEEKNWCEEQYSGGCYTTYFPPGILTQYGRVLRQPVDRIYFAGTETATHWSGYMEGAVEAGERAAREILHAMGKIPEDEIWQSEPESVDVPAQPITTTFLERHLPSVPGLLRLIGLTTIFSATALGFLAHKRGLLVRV
In words: Inhibition of human recombinant MAO-B expressed in insect cell microsomes using kynuramine as substrate assessed as formation of 4-hydroxyquinoline by fluorometric method. Set-up: species or system Microsome.

The species entered for series [3] is Homo sapiens. Description: Selectivity index, ratio of IC50 for human recombinant MAO-A to IC50 for human recombinant MAO-B.
For series [4], the target named is T1, Amine oxidase [flavin-containing] A. Description: Inhibition of human recombinant MAO-A expressed in insect cell microsomes using kynuramine as substrate assessed as formation of 4-hydroxyquinoline by fluorometric method. Set-up: species or system Microsome.
Series [5] concerns the target T3, Amine oxidase [flavin-containing] A (Rattus norvegicus, UniProt P21396).
T3 sequence (P21396 whole entry): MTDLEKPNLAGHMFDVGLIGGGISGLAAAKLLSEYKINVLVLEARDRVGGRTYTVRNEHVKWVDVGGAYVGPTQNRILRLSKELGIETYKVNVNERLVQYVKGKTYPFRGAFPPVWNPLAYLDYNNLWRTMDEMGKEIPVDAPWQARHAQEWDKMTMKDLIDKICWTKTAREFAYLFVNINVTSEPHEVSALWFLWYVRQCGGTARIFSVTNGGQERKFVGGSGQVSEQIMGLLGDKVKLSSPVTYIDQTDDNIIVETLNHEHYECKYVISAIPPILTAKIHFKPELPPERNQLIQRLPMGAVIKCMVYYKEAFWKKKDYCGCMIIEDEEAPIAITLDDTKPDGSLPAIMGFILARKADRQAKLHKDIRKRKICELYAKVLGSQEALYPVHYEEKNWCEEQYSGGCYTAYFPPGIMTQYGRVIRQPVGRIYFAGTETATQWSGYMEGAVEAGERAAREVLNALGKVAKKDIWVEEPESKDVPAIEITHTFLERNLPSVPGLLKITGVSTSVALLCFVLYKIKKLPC
Description: Displacement of [14C]-5HT from rat MAO-A after 20 mins by liquid scintillation counting analysis. In general terms: In a radioligand displacement assay an active substance lowers the binding of a labelled ligand.

Series [6] has as its target T4, Amine oxidase [flavin-containing] B (Rattus norvegicus, UniProt P19643).
T4 sequence (P19643 whole entry): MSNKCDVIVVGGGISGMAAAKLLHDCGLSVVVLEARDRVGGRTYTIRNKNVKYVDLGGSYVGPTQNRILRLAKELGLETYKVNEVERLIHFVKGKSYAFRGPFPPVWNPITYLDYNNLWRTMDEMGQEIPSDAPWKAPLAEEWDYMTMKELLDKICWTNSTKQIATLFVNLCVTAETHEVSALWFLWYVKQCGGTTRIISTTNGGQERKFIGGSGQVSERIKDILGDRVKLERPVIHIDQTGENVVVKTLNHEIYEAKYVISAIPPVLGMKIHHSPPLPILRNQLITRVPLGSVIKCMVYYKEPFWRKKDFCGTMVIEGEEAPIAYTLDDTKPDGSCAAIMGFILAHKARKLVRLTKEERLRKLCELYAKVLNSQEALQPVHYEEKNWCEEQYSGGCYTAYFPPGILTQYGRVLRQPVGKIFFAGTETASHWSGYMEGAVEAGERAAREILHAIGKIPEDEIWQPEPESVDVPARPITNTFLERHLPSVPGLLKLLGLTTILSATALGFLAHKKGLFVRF
In words: Displacement of [14C]-beta-PEA from rat MAO-B after 20 mins by liquid scintillation counting analysis.

In the case of `COc1cccc(/C=C/C(=O)c2ccc(C)o2)c1`, in series [1], the “inhibition (INH)” value was “Not Active”.

The term IC50 denotes the point on the concentration scale where inhibition reaches its midpoint. Turning to `Cc1ccc(C(=O)/C=C/c2ccc(Br)cc2)o1`, the results for the IC50 in series [2] and in series [4] were 0.707 µM and 85.7 µM, respectively. Also, the Ratio IC50 in series [3] is 121.

Turning to `O=C(/C=C/c1ccc(O)cc1)c1ccc(O)cc1O` [ISOLIQUIRITIGENIN], the values for the half-maximal inhibitory concentration (IC50) in series [5] and in series [6] were 13.9 µM and 47.2 µM, respectively.

Consider `Cc1ccc(C(=O)/C=C/c2ccc(F)cc2)o1`, for which the IC50 stood at 0.924 µM in series [2] and 18.6 µM in series [4]. In addition, the Ratio IC50 in series [3] is 20.
